# Legend:
# [1] = system: IL-21 secretion from human CD4+ T cells; assay: Suppression of IL-21 secretion by activated Th17 cells (ALPHALISA); format: cell-based; conditions: for IC50: 120 h, human CD4+ T cells under Th17 stimulation, 5 days
# Description: IL-21 is a pro-inflammatory cytokine secreted by CD4^+ Th17 cells and is thought to serve as a T-cell growth factor playing overlapping roles with IL-2. This Example describes a study that measured the IC50 values of the indole compounds disclosed herein for suppressing IL-21 secretion from human CD4^+ T cells that had been treated with stimulatory conditions that gave rise to TH17 cells (see, e.g., Dobritsa et al., J Biomol Screen. 18(1):75-84 (2013)).
# Human CD4^+ T cells were purchased from Lonza Walkersville Inc. (Walkersville, MD). DMSO was obtained from Sigma (St. Louis, MO). Greiner cell culture plates, Gibco DMEM cell culture medium, media supplements, and antibiotics, as well as DYNABEADS Human T-Activator CD3/CD28 and R&D Systems TGF-β, IL-1β and IL-23 and Invitrogen IL-6 cytokines, were purchased through Fisher Scientific (Pittsburgh, PA). ALPHALISA assay plates and the Human Interleukin-21 ALPHALISA kit was obtained from Perkin Elmer (Boston, MA).
# Cell culture plates were pre-coated with test compounds in serial dilutions for generating a 10-point, 3-fold dose response curve with a top concentration of 1 μM or 100 nM. To do this, compounds were dissolved in DMSO and added to an ECHO qualified plate for transfer to the cell culture plate with the ECHO555. The indole compounds to be tested were dissolved in […] and wells were backfilled with DMSO so that all treatments received 0.1% DMSO final volume. Positive control (0% inhibition) wells, in which compounds were replaced with […], were included on each plate. At least 15×10^6 frozen CD4^+ T cells per plate of compounds were thawed in a 37° C. water bath, and the cells were washed twice with 10 mL of the complete medium (DMEM supplemented with 10% fetal bovine serum (FBS), 100 U/mL penicillin, and 100 μg/mL streptomycin), followed by centrifugation (250×g, 10 min). Cells were re-suspended to the desired density, and cultured in 384-well treated sterile cell culture plates in a total volume of 50 μL per well. Each plate included wells with induced and un-induced cells.
# Induced cells were activated in the complete medium with DYNABEADS Human T-Activator CD3/CD28 at a bead-to-cell ratio of 1:2.5 and stimulated with the following cytokines: transforming growth factor-β (TGF-β, 5 ng/mL), IL-6 (20 ng/mL), IL-23 (20 ng/mL), and IL-1β (10 ng/mL).
# Un-induced cells were left in complete medium with no additional supplements. Plates were incubated at 37° C., 5% CO2 for a total of 5 days. Upon completion of the 5 day incubation period, cells were spun down (1,000×g, 1 min) and supernatant was transferred to the ALPHALISA assay plate using the Mosquito HTS liquid handler (TTP Labtech Inc., Cambridge, MA).
# IL-21 levels in cell supernatants and cell-free control samples were measured using the ALPHALISA assay kit from Perkin Elmer, following the manufacturer's instructions. The assay was run at room temperature in 384-well ALPHAPLATES (cat. 6005350; Boston, MA). Briefly, immediately after transferring the cell supernatant to the assay plate, anti-IL-21 acceptor beads were added with the CERTUS FLEX liquid handler (LEAP Technologies, Morrisville, NC). The plate was sealed, spun down and incubated for 30 minutes. After incubation, the seal was removed, anti-IL-21 biotinylated antibody was added with the CERTUS FLEX, and the plate was sealed again, spun down and incubated for 60 minutes. Next, the seal was removed, streptavidin-coated donor beads were added with the CERTUS FLEX, and the plate was sealed, spun down and incubated for another 60 minutes. Finally, the seal was removed and the plate was read using the ENVISION reader (Perkin Elmer, Boston, MA) set with an excitation filter of 680 nm and an emission filter of 615 nm. Two independent IL-21 standard dilution curves were run per plate with analyte provided in the ALPHALISA kit.
# For estimation of the assay performance, Z′ values were calculated for each plate, comparing positive and negative controls. […]
# [2] = system: human hepatocytes; assay: Hepatocyte intrinsic clearance assay, human hepatocytes; format: in vitro ADME; conditions: for CLint (μL/min/10^6 ells) / EH (%) hepatic extraction ratio: Human Hepatocytes; for CLint (μL/min/10^6 ells): 1 μM test compound; for EH (%) hepatic extraction ratio: well stirred liver model, fu=1
# Description: The liver is an important organ in the body for drug metabolism. This Example describes hepatocyte intrinsic clearance assays using both human and mouse hepatocytes to evaluate the metabolic stability of the indole compounds disclosed herein. The parameters measured include t1/2 (half-life), CLint (intrinsic clearance), and EH (hepatic extraction ratio).
# Testosterone (Lot FE111011-01) was obtained from Cerilliant (Round Rock, TX). 7-hydroxycoumarin (Lot 11631ED) was obtained from Sigma Aldrich (St. Louis, MO). Cryopreserved human hepatocytes pooled from ten donor males (X008001), cryopreserved male IRC/CD-1 mouse hepatocytes (M005052), INVITROGRO HI Medium (incubation), and INVITROGRO HT Medium (thawing) were obtained from Bioreclamation IVT (Baltimore, MD). All solvents were obtained from commercial sources and used without further purification.
# Each test compound was prepared as a 1 mM stock solution in DMSO. A 2 μM solution of test compound and positive controls were prepared in INVITROGRO HI Medium (incubation). These solutions were pre-warmed in a sterile incubator set to maintain 37° C., 5% CO2, and 98% humidity. Cryopreserved hepatocytes were prepared at a concentration of 2×10^6 living cells/mL in incubation media and pre-warmed in the incubator. The compound solutions and hepatocyte mixtures were then combined at a ratio of 1:1 (v:v). The final volume of the reaction mixture was 750 μL, containing 1 μM test compound (10 μM for 7-hydroxycoumarin) and […]. The reaction mixture was placed in the incubator on a plate shaker. After 0, 15, 30, 60, 90, and 120 minutes of incubation, 100 μL of reaction mixtures were removed from the incubation plate and mixed with 150 μL of ice-cold acetonitrile in a designated well of a 96-well crash plate. The 96-well crash plate was placed on ice for 15 min, and samples were centrifuged (3,600 RPM, 10 min, 4° C.) to precipitate protein. The supernatants were diluted 1:1 (v:v) with water containing 0.15 μM verapamil and/or 1 μM tolbutamide (internal standards for positive and negative modes, respectively) in a 96-well shallow injection plate. This plate was sealed for LC-MS analysis. All measurements were done in duplicate.
# The residual compound remaining (% R) was determined from LC-MS peak areas by comparison to the zero time point. Metabolic half-life (t1/2) and intrinsic clearance (CLint) values were calculated from the slope of the plot of ln (% R) vs. time and the concentration of hepatocytes present in the incubation. Percent remaining at 60 minutes was calculated by plugging in the 60 minute value into the slope equation generated by the percent remaining time points.
# In vivo hepatic clearance CLH was calculated using the well stirred liver model according to the following equation:
# [formula] where QH is the total liver blood flow, fu is unbound fraction of the drug, and CL′int is defined as follows: CL′int=CLint×(10^6 cells/g of liver weight)×(g liver weight/kg of body weight). In the first approximation, used in this study, fu=1.
# Hepatic extraction ratio EH was calculated using the following equation:
# [formula] Corresponding physiological parameters used in calculations for all species are shown below in Table 5.
SMILES,IC50 [1] [nM],CLint (μL/min/10^6 ells) [2] [μL/min/10^6 ells],EH (%) hepatic extraction ratio [2] [%],"potency in suppressing IL-21 secretion, in words ([1]; human CD4+ T cells)","EH lower as compared to ARI-002, in words ([2]; human hepatocytes)",times lower clearance as compared to ARI-002 ([2]; human hepatocytes) [times]
"CCC(=O)c1csc(C(=O)c2c[nH]c3c(F)cccc23)n1 [ARI-140, 1-(2-(7-fluoro-1H-indole-3-carbonyl)thiazol-4-yl)propan-1-one]",8.6,3.5,30,,,
"CCC(=O)c1csc(C(=O)c2c[nH]c3cccc(F)c23)n1 [ARI-142, 1-(2-(4-fluoro-1H-indole-3-carbonyl)thiazol-4-yl)propan-1-one]",209,8.1,50,least active in suppressing IL-21 secretion,,
"CCC(=O)c1csc(C(=O)c2c[nH]c3cc(F)ccc23)n1 [ARI-143, 1-(2-(6-fluoro-1H-indole-3-carbonyl)thiazol-4-yl)propan-1-one]",18.8,4.5,36,,two times,30
"NCc1nnc(-c2csc(C(=O)c3c[nH]c4c(F)cccc34)n2)o1 [ARI-145, (4-(5-(aminomethyl)-1,3,4-oxadiazol-2-yl)thiazol-2-yl)(7-fluoro-1H-indol-3-yl)methanone]",46.9,4.1,33,,,
"NCc1nc(-c2csc(C(=O)c3c[nH]c4c(F)cccc34)n2)no1 [ARI-146, (4-(5-(aminomethyl)-1,2,4-oxadiazol-3-yl)thiazol-2-yl)(7-fluoro-1H-indol-3-yl)methanone]",13.4,1.9,19,,,
"Nc1nnc(-c2csc(C(=O)c3c[nH]c4ccc(F)cc34)n2)o1 [ARI-148, (4-(5-amino-1,3,4-oxadiazol-2-yl)thiazol-2-yl)(5-fluoro-1H-indol-3-yl)methanone]",5.9,2.5,23,,,
"CCC(=O)c1csc(C(=O)c2c[nH]c3cc(F)c(F)cc23)n1 [ARI-149, 1-(2-(5,6-difluoro-1H-indole-3-carbonyl)thiazol-4-yl)propan-1-one]",30.3,5.3,39,,,

# — patent publication US11891386B2, “Indole compounds and their use” (ARIAGEN, INC., priority 2017, dated 2024)
